Values quoted from earlier work, collected in US20130224794A1, “MINERAL-PEPTIDE CHELATES” (NUGEN BIOSCIENCE (TAIWAN) CO., LTD., priority 2009, published 2013).
Read-outs that look alike come from different tables or passages of the source.

Settings: for absorption: qualitative
[1] = general soybean isoflavones, glucoside vs aglycone form

| SMILES | bioavailability (in vivo) | bioavailability [1] | absorption [1] |
| --- | --- | --- | --- |
| O=c1c(-c2ccc(O)cc2)coc2cc(O)ccc12 [daidzein] | 90% |  |  |
| O=c1c(-c2ccc(O)cc2)coc2cc(O[C@@H]3O[C@H](CO)[C@@H](O)[C@H](O)[C@H]3O)ccc12 [daidzin] |  | 20% | slow |
| O=c1c(-c2ccc(O)cc2)coc2cc(O[C@@H]3O[C@H](CO)[C@@H](O)[C@H](O)[C@H]3O)cc(O)c12 [genistin] |  | 20% | slow |
| O=c1c(-c2ccc(O)cc2)coc2cc(O)cc(O)c12 [genistein] |  | 90% | fast |
